What all share (assay): receptor-mediated PP2C (HAB1) inhibition in vitro assay
Type in all cases: biochemical

The target of assay [1] is T1, PYL10 (Arabidopsis thaliana, UniProt Q8H1R0).
T1 construct: 6X-His; made in house; host or cells: E. coli BL21[DE3]pLysS
T1 sequence (Q8H1R0 1-183): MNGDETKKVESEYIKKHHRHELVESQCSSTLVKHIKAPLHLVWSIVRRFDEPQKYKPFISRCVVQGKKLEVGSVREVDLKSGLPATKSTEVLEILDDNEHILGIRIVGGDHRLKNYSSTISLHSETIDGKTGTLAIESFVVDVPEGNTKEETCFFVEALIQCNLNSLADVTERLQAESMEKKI
T1 sequence (Q9CAJ0 23-511 partner): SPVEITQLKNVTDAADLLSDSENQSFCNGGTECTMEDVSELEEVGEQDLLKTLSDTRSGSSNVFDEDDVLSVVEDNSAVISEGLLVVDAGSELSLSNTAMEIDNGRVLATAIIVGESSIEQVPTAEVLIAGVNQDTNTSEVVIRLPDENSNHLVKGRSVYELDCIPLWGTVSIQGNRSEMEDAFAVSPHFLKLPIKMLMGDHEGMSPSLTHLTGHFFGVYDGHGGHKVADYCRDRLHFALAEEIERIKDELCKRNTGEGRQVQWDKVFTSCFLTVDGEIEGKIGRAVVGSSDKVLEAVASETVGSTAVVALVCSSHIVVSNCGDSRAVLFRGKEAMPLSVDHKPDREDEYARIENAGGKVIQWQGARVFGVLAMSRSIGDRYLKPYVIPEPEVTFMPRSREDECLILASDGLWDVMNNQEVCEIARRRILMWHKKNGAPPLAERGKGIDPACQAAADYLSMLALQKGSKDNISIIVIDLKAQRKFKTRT
Conditions: for remaining activity at 50 µM: 50 uM of the test compound; for IC50: Table XII-B, calculated from dose curves, read-out: PP2C Activity (IC50 in uM) PYL10. An outline of the steps:
(§1)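 Compounds, tested at 25 μM or 50 uM with ABA at 10 uM, were incubated with recombinant receptor and 50 nM GST-HAB1 (2:1 ratio) in MnCl2-containing Tris-OAc buffer, pH 7.9. Phosphatase activity was followed by 4-methylumbelliferyl-phosphate fluorescence.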

Assay [2] has as its target T2, PYL9 (Arabidopsis thaliana, UniProt Q84MC7).
T2 construct: 6X-His; made in house; host or cells: E. coli BL21[DE3]pLysS
T2 sequence (Q84MC7 1-187): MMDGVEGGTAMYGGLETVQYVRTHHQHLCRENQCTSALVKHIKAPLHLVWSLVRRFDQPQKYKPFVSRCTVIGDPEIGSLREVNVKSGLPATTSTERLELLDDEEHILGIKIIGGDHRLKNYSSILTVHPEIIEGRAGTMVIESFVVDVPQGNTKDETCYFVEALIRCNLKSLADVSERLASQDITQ
T2 sequence (Q9CAJ0 23-511 partner): T1 sequence (Q9CAJ0 23-511 partner)
Conditions: for remaining activity at 50 µM: 50 uM of the test compound; for IC50: Table XII-B, calculated from dose curves, read-out: PP2C Activity (IC50 in uM) PYL9. Put shortly: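 Fluorogenic readout: 4-methylumbelliferyl-phosphate hydrolysis by 50 nM GST-HAB1 plus 2:1 His-receptor; Tris-OAc pH 7.9, NaCl, 1 mM MnCl2, β-ME. Compounds at 25 μM or 50 uM single dose; IC50 from dose curves for selected compounds.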

Assay [3] has as its target T3, PYL6 (Arabidopsis thaliana, UniProt Q8S8E3).
T3 construct: 6X-His; made in house; host or cells: E. coli BL21[DE3]pLysS
T3 sequence (Q8S8E3 1-215): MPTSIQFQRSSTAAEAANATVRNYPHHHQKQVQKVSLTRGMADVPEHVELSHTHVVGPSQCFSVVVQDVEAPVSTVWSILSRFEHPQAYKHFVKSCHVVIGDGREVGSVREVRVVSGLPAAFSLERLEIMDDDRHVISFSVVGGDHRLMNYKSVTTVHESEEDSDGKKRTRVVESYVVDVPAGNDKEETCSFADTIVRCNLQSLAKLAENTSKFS
T3 sequence (Q9CAJ0 23-511 partner): T1 sequence (Q9CAJ0 23-511 partner)
The note with it: for remaining activity at 50 µM: 50 uM of the test compound; for IC50: Table XII-B, calculated from dose curves, read-out: PP2C Activity (IC50 in uM) PYL6. An outline of the steps: as §1

For assay [4], the target named is T4, PYL1 (Arabidopsis thaliana, UniProt Q8VZS8).
T4 construct: 6X-His; made in house; host or cells: E. coli BL21[DE3]pLysS
T4 sequence (Q8VZS8 1-221): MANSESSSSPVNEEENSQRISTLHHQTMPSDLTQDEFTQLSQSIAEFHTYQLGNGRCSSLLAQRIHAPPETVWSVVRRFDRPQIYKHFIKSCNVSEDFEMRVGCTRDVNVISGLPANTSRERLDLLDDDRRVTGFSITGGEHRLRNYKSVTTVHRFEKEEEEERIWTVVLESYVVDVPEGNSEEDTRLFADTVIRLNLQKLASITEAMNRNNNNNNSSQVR
T4 sequence (Q9CAJ0 23-511 partner): T1 sequence (Q9CAJ0 23-511 partner)
Conditions: for remaining activity at 50 µM: 50 uM of the test compound; for IC50: Table XII-B, calculated from dose curves, read-out: PP2C Activity (IC50 in uM) PYL1. An outline of the steps:
as §1

Assay [5] has as its target T5, PYL11 (Arabidopsis thaliana, UniProt Q9FJ50).
T5 construct: made in house; host or cells: E. coli BL21[DE3]pLysS
T5 sequence (Q9FJ50 1-161): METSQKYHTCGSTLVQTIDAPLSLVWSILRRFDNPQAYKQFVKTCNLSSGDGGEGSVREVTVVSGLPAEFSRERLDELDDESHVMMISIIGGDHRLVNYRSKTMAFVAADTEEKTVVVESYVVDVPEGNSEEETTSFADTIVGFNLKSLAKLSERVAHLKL
T5 sequence (Q9CAJ0 23-511 partner): T1 sequence (Q9CAJ0 23-511 partner)
The note with it: for remaining activity at 50 µM: 50 uM of the test compound; for IC50: Table XII-B, calculated from dose curves, read-out: PP2C Activity (IC50 in uM) PYL11. Put shortly: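 His-tagged receptors (MBP fusion for PYL11) at 2:1 ratio to 50 nM GST-HAB1 in 100 mM Tris-OAc pH 7.9, 100 mM NaCl, 1 mM MnCl2; 4-methylumbelliferyl-phosphate fluorogenic substrate. Compounds at 50 uM (ABA 10 uM); IC50 from dose curves for selected compounds.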

For assay [6], the target named is T6, PYL2 (Arabidopsis thaliana, UniProt O80992).
T6 construct: 6X-His; made in house; host or cells: E. coli BL21[DE3]pLysS
T6 sequence (O80992 1-190): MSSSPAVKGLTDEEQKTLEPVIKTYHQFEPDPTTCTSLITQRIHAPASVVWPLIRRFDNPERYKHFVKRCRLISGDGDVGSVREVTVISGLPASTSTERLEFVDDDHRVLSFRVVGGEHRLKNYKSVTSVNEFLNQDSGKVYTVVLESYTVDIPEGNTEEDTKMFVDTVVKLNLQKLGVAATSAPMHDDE
T6 sequence (Q9CAJ0 23-511 partner): T1 sequence (Q9CAJ0 23-511 partner)
The note with it: for remaining activity at 50 µM: 50 uM of the test compound; for IC50: Table XII-B, calculated from dose curves, read-out: PP2C Activity (IC50 in uM) PYL2. An outline of the steps: as §1

By remaining activity is commonly meant the signal under treatment as a percentage of the control signal. By IC50 is commonly meant the concentration at which inhibition is half-maximal. On to `O=C(NS(=O)(=O)Cc1ccc([N+](=O)[O-])cc1)C1(c2ccccc2)CCCCC1` [Compound 63], for which the remaining activity at 50 µM in assay [1] stood at 88.9%; in assay [2] it was 75.5%; in assay [3] it was 108%; in assay [4], 101%; in assay [5] it was 92.6%; in assay [6], 115%. Besides, the concentration for half-maximal inhibition (IC50) in assay [1], in assay [2], in assay [3], in assay [4], in assay [5] and in assay [6] was more than 50 µM each time.
Regarding `O=C(NS(=O)(=O)Cc1ccc(F)cc1)C1(c2ccccc2)CCCCC1` [Compound 64], the remaining activity at 50 µM is 89.8% in assay [1]; 91.1% in assay [2]; 109% in assay [3]; 102% in assay [4]; 97.5% in assay [5]; 107% in assay [6]. In addition, the IC50 in assay [1], in assay [2], in assay [3], in assay [4], in assay [5] and in assay [6] was more than 50 µM each time.
As for `CC(C)COC(=O)NS(=O)(=O)Cc1ccc(C#N)cc1` [Compound 65, 2-Methylpropyl N-[(4-cyanophenyl)methanesulfonyl]carbamate], the remaining activity at 50 µM in assay [1] worked out at 39.2%; in assay [2], 18.6%; in assay [3] it was 58.9%; in assay [4], 91.7%; in assay [5] it was 42.1%; in assay [6], 95.2%. For the same compound, the 50% inhibitory concentration (IC50) is 19.2 µM in assay [1]; 6.5 µM in assay [2]; more than 50 µM in assay [3]; more than 50 µM in assay [4]; more than 50 µM in assay [6].
`CC1CCC(C(=O)NS(=O)(=O)Cc2ccc(C#N)cc2)(c2ccc(F)cc2)CC1` (centres unmarked) [Compound 67, N-[(4-Cyanophenyl)methanesulfonyl]-1-(4-fluorophenyl)-4-methylcyclohexane-1-carboxamide]: the remaining activity at 50 µM was 48.2% in assay [1]; 8% in assay [2]; 46.6% in assay [3]; 98.3% in assay [4]; 14.7% in assay [5]; 93% in assay [6]. For the same compound, the IC50 in assay [2] is 2.13 µM; in assay [4] it was more than 50 µM; in assay [5], 3.13 µM; in assay [6], more than 50 µM.
For `CC1(C)CCC(C(=O)NS(=O)(=O)Cc2ccc(C#N)cc2)(c2ccc(F)cc2)CC1` [Compound 68, N-[(4-Cyanophenyl)methanesulfonyl]-1-(4-fluorophenyl)-4,4-dimethylcyclohexane-1-carboxamide], the remaining activity at 50 µM in assay [1] came out at 83.3%; in assay [2], 22.6%; in assay [3] it was 46.6%; in assay [4] it was 96%; in assay [5], 16.2%; in assay [6], 94.8%. The concentration for half-maximal inhibition (IC50) in assay [1] is more than 50 µM; in assay [2], 17.7 µM; in assay [4] it was more than 50 µM; in assay [5], 2.22 µM; in assay [6], more than 50 µM.
On to `N#Cc1ccc(CS(=O)(=O)NC(=O)C2(c3ccccc3)CCCCC2)cc1` [Compound 69, N-[(4-Cyanophenyl)methanesulfonyl]-1-phenylcyclohexane-1-carboxamide], for which the remaining activity at 50 µM in assay [1] was 27.3%; in assay [2], 5.8%; in assay [3], 72.6%; in assay [4], 98.4%; in assay [5], 13.5%; in assay [6] it was 96.2%. The IC50 in assay [1] was 1.69 µM; in assay [2], 0.135 µM; in assay [3], more than 50 µM; in assay [4], more than 50 µM; in assay [5], 2.53 µM; in assay [6] it was more than 50 µM.
With `N#Cc1ccc(CS(=O)(=O)NC(=O)C(c2ccccc2)c2ccccc2)cc1` [Compound 71, N-[(4-Cyanophenyl)methanesulfonyl]-2,2-diphenylacetamide], the remaining activity at 50 µM in assay [1] was determined as 86.5%; in assay [2] it was 81.8%; in assay [3] it was 96.9%; in assay [4], 93.8%; in assay [5] it was 43.2%; in assay [6], 102%. In addition, the IC50 was more than 50 µM in assay [1]; more than 50 µM in assay [2]; more than 50 µM in assay [3]; more than 50 µM in assay [4]; 25 µM in assay [5]; more than 50 µM in assay [6].
Take `N#Cc1ccc(CS(=O)(=O)NC(=O)C(c2ccc(F)cc2)c2ccc(F)cc2)cc1` [Compound 72, N-[(4-Cyanophenyl)methanesulfonyl]-2,2-bis(4-fluorophenyl)acetamide]: the remaining activity at 50 µM was 98% in assay [1]; 85.8% in assay [2]; 95.1% in assay [3]; 94.2% in assay [4]; 37.4% in assay [5]; 100% in assay [6]. The IC50 in assay [1] was more than 50 µM; in assay [2], more than 50 µM; in assay [3], more than 50 µM; in assay [4] it was more than 50 µM; in assay [5] it was 25 µM; in assay [6] it was more than 50 µM.
Consider `N#Cc1ccc(CS(=O)(=O)NC(=O)C(C2CCCCC2)C2CCCCC2)cc1` [Compound 73, N-[(4-Cyanophenyl)methanesulfonyl]-2,2-cyclohexylacetamide], for which the remaining activity at 50 µM was 85.7% in assay [1]; 56.3% in assay [2]; 91% in assay [3]; 95.5% in assay [4]; 26.9% in assay [5]; 93.8% in assay [6]. Moreover, the IC50 in assay [1] was more than 50 µM; in assay [2], more than 50 µM; in assay [3] it was more than 50 µM; in assay [4], more than 50 µM; in assay [5] it was 22.4 µM; in assay [6], more than 50 µM.
